Assay: Precipitate generation prevention experiment of liquid formulation under accelerated storage
Type: physicochemical
Parameters: key: O: Generated; X: Non-Generated
Conditions: for Result: whether or not a precipitate is generated: chlorhexidine gluconate 0.1, terbinafine hydrochloride 0.1, ethanol 59 wt %; for Whether or not a precipitate is generated: 1.0% malic acid, 0.3% sodium borate
Excerpt: As described above, most liquid medicines include excipients including chloride ions, and the composition of the present invention in combination with terbinafine hydrochloride may also cause precipitation. However, it may further include malic acid and sodium borate to prevent the generation of precipitates of terbinafine hydrochloride. Hereinafter, a description will be given of the precipitate generation experiments of terbinafine hydrochloride.
First, a liquid formulation containing terbinafine hydrochloride, chlorhexidine gluconate and ciclopirox olamine is prepared as shown in the following [Table 3]. Malic acid or polycarboxylic acid other than malic acid is added to the prepared liquid formulation, and the presence or absence of a precipitate is observed.
First, malic acid, citric acid, oxalic acid and tartaric acid are prepared as a polycarboxylic acid such as malic acid. To the liquid formulation prepared in the above [Table 3], polycarboxylic acid was added in 0.1, 0.3, 0.5, 0.7, 1.0, 2.0, 3.0, 4.0, 5.0 (w/v %), respectively, and then chlorhexidine gluconate is adjusted to a stable pH of 5.0 using a pH adjusting agent. And, the liquid formulations were stored under accelerated conditions of 40±2° C. and relative humidity of 75±5% to observe the presence or absence of precipitates. […]
Next, after adding 1.0% of malic acid and 0.3% of sodium borate, an experiment is performed to determine whether precipitates are generated by adjusting the content of chlorhexidine gluconate, terbinafine hydrochloride, and ciclopirox olamine. The experimental results are shown in the following [Table 6] and [Table 7], and experiments were performed on whether or not precipitates of the liquid formulations prepared without adding malic acid and sodium borate are generated were shown in [Table 8].

[1] = concentration of the ingredient 0.1 %
[2] = concentration of the ingredient 0.3 %
[3] = concentration of the ingredient 0.5 %
[4] = concentration of the ingredient 1.0 %
[5] = concentration of the ingredient 2.0 %
[6] = concentration of the ingredient 3.0 %
[7] = concentration of the ingredient 4.0 %
[8] = concentration of the ingredient 5.0 %
[9] = concentration of the ingredient 6.0 %

## Cc1cc(C2CCCCC2)n(O)c(=O)c1 [Ciclopirox Olamine, 2(1H)-Pyridinone, 6-cyclohexyl-1-hydroxy-4-methyl-compound with 2-aminoethanol (1:1)]
Ciclopirox olamine 0.1 wt %, malic acid and sodium borate, pH 5.3~5.7
  Result: whether or not a precipitate is generated: X
Ciclopirox olamine 0.1 wt %, without malic acid and sodium borate, pH adjustment x
  Result: whether or not a precipitate is generated: O
Ciclopirox olamine 0.2 wt %, without malic acid and sodium borate, pH adjustment x
  Result: whether or not a precipitate is generated: O
Ciclopirox olamine 0.3 wt %, malic acid and sodium borate, pH 5.3~5.7
  Result: whether or not a precipitate is generated: X
Ciclopirox olamine 0.3 wt %, without malic acid and sodium borate, pH adjustment x
  Result: whether or not a precipitate is generated: O
Ciclopirox olamine 0.4 wt %, without malic acid and sodium borate, pH adjustment x
  Result: whether or not a precipitate is generated: O
Ciclopirox olamine 0.5 wt %, malic acid and sodium borate, pH 5.3~5.7
  Result: whether or not a precipitate is generated: X
Ciclopirox olamine 0.5 wt %, without malic acid and sodium borate, pH adjustment x
  Result: whether or not a precipitate is generated: O
Ciclopirox olamine 0.6 wt %, without malic acid and sodium borate, pH adjustment x
  Result: whether or not a precipitate is generated: O
Ciclopirox olamine 0.7 wt %, without malic acid and sodium borate, pH adjustment x
  Result: whether or not a precipitate is generated: O
Ciclopirox olamine 0.8 wt %, without malic acid and sodium borate, pH adjustment x
  Result: whether or not a precipitate is generated: O
Ciclopirox olamine 0.9 wt %, without malic acid and sodium borate, pH adjustment x
  Result: whether or not a precipitate is generated: O
Ciclopirox olamine 1.0 wt %, malic acid and sodium borate, pH 5.3~5.7
  Result: whether or not a precipitate is generated: X
Ciclopirox olamine 2.0 wt %, malic acid and sodium borate, pH 5.3~5.7
  Result: whether or not a precipitate is generated: X
Ciclopirox olamine 3.0 wt %, malic acid and sodium borate, pH 5.3~5.7
  Result: whether or not a precipitate is generated: X
Ciclopirox olamine 4.0 wt %, malic acid and sodium borate, pH 5.3~5.7
  Result: whether or not a precipitate is generated: X
Ciclopirox olamine 5.0 wt %, malic acid and sodium borate, pH 5.3~5.7
  Result: whether or not a precipitate is generated: X
Ciclopirox olamine 6.0 wt %, malic acid and sodium borate, pH 5.3~5.7
  Result: whether or not a precipitate is generated: X

## CN(C/C=C/C#CC(C)(C)C)Cc1cccc2ccccc12.Cl [Terbinafine hydrochloride, [(2E)-6,6-dimethylhept-2-en-4-yn-1-yl] (methyl) (naphthalen-1-ylmethyl)aminehydrochloride]
[1]
  Whether or not a precipitate is generated: X
[2]
  Whether or not a precipitate is generated: X
[3]
  Whether or not a precipitate is generated: X
[4]
  Whether or not a precipitate is generated: X
[5]
  Whether or not a precipitate is generated: X
[6]
  Whether or not a precipitate is generated: O
[7]
  Whether or not a precipitate is generated: O
[8]
  Whether or not a precipitate is generated: O
[9]
  Whether or not a precipitate is generated: O

## N=C(NCCCCCCNC(=N)NC(=N)Nc1ccc(Cl)cc1)NC(=N)Nc1ccc(Cl)cc1 [Chlorhexidine Gluconate, chlorhexidine gluconate]
[1]
  Whether or not a precipitate is generated: X
[2]
  Whether or not a precipitate is generated: X
[3]
  Whether or not a precipitate is generated: X
[4]
  Whether or not a precipitate is generated: X
[5]
  Whether or not a precipitate is generated: X
[6]
  Whether or not a precipitate is generated: X
[7]
  Whether or not a precipitate is generated: X
[8]
  Whether or not a precipitate is generated: O
[9]
  Whether or not a precipitate is generated: O

Reference: patent US20210045986A1, “COMPOSITION FOR PREVENTION OR TREATMENT OF SKIN INFECTION” (CARESIDE CO., LTD., priority 2018, published 2021)
